ChEMBL document CHEMBL1201862, “PubChem BioAssay data set” (2004)
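All cell lines were grown in 96-well plates and treated with compound for 48 hours. Here, GI50 denotes the concentration required for 50% inhibition of growth.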 Activity calls are given as the source filed them. Rule as the data show it: active = GI50 up to about 1.1 µM and inactive = higher.

Assays:
Assay in all cases: NCI anticancer screen, dose series, 48 h
M14 = system: M14
MDA-MB-231 = system: MDA-MB-231
HCT-116 = system: HCT-116
OVCAR-8 = system: OVCAR-8
EKVX = system: EKVX
DU-145 = system: DU-145
MCF7 = system: MCF7
RPMI-8226 = system: RPMI-8226
TK-10 = system: TK-10
HOP-62 = system: HOP-62
SNB-19 = system: SNB-19
IGROV-1 = system: IGROV-1
SF-539 = system: SF-539
OVCAR-5 = system: OVCAR-5
SK-MEL-2 = system: SK-MEL-2
SF-268 = system: SF-268
SK-MEL-28 = system: SK-MEL-28
UACC-62 = system: UACC-62
A549 = system: A549
SR = system: SR
786-0 = system: 786-0
U-251 = system: U-251
SW-620 = system: SW-620
Hs-578T = system: Hs-578T
Malme-3M = system: Malme-3M
HL-60 = system: HL-60
NCI-H460 = system: NCI-H460
PC-3 = system: PC-3
NCI-H23 = system: NCI-H23
SK-MEL-5 = system: SK-MEL-5
OVCAR-3 = system: OVCAR-3
HT-29 = system: HT-29
NCI/ADR-RES = system: NCI/ADR-RES
UACC-257 = system: UACC-257
RXF 393 = system: RXF 393
SK-OV-3 = system: SK-OV-3
HOP-92 = system: HOP-92
ACHN = system: ACHN
K562 = system: K562
NCI-H522 = system: NCI-H522
MDA-N = system: MDA-N
T47D = system: T47D
CCRF-CEM = system: CCRF-CEM
OVCAR-4 = system: OVCAR-4
MOLT-4 = system: MOLT-4
KM12 = system: KM12
BT-549 = system: BT-549
COLO 205 = system: COLO 205
UO-31 = system: UO-31
A498 = system: A498
SF-295 = system: SF-295
HCT-15 = system: HCT-15
SN12C = system: SN12C
MDA-MB-435 = system: MDA-MB-435
CAKI-1 = system: CAKI-1
LOX IMVI = system: LOX IMVI

Cc1cc(C)n(CN(CCCCO)Cn2nc(C)cc2C)n1
GI50 (M14): 18.5 µM (inactive) | GI50 (MDA-MB-231): 29.9 µM (inactive) | GI50 (HCT-116): 20 µM (inactive) | GI50 (OVCAR-8): 19.2 µM (inactive) | GI50 (EKVX): 35.3 µM (inactive) | GI50 (DU-145): 24.8 µM (inactive) | GI50 (MCF7): 26.8 µM (inactive) | GI50 (RPMI-8226): 3.21 µM (inactive) | GI50 (TK-10): 73.8 µM (inactive) | GI50 (HOP-62): 21.8 µM (inactive) | GI50 (SNB-19): 57.1 µM (inactive) | GI50 (IGROV-1): 26.9 µM (inactive) | GI50 (SF-539): 18.6 µM (inactive) | GI50 (OVCAR-5): 23.2 µM (inactive) | GI50 (SK-MEL-2): 22.2 µM (inactive) | GI50 (SF-268): 25.6 µM (inactive) | GI50 (SK-MEL-28): 17.7 µM (inactive) | GI50 (UACC-62): 19.1 µM (inactive) | GI50 (A549): 49.2 µM (inactive) | GI50 (SR): 4.82 µM (inactive) | GI50 (786-0): 14.8 µM (inactive) | GI50 (U-251): 22.4 µM (inactive) | GI50 (SW-620): 21.7 µM (inactive) | GI50 (Hs-578T): > 100 µM (inactive) | GI50 (Malme-3M): 22.9 µM (inactive) | GI50 (HL-60): 23.3 µM (inactive) | GI50 (NCI-H460): 52.7 µM (inactive) | GI50 (PC-3): 20.2 µM (inactive) | GI50 (NCI-H23): 24.3 µM (inactive) | GI50 (SK-MEL-5): 34.1 µM (inactive) | GI50 (OVCAR-3): 27.9 µM (inactive) | GI50 (HT-29): 17.9 µM (inactive) | GI50 (NCI/ADR-RES): 18.2 µM (inactive) | GI50 (UACC-257): 25.5 µM (inactive) | GI50 (RXF 393): 18.8 µM (inactive) | GI50 (SK-OV-3): > 100 µM (inactive) | GI50 (HOP-92): 22 µM (inactive) | GI50 (ACHN): 17.5 µM (inactive) | GI50 (K562): 19.9 µM (inactive) | GI50 (NCI-H522): 23.8 µM (inactive) | GI50 (MDA-N): 17.5 µM (inactive) | GI50 (T47D): 25.6 µM (inactive) | GI50 (CCRF-CEM): 0.178 µM (active) | GI50 (OVCAR-4): 24.7 µM (inactive) | GI50 (MOLT-4): 14.2 µM (inactive) | GI50 (KM12): 23 µM (inactive) | GI50 (BT-549): 23 µM (inactive) | GI50 (COLO 205): 17.2 µM (inactive) | GI50 (UO-31): 27.7 µM (inactive) | GI50 (A498): > 100 µM (inactive) | GI50 (SF-295): > 100 µM (inactive) | GI50 (HCT-15): 17.5 µM | GI50 (SN12C): 26 µM (inactive) | GI50 (MDA-MB-435): 19.4 µM (inactive) | GI50 (CAKI-1): 34.4 µM (inactive) | GI50 (LOX IMVI): 22.8 µM (inactive)
